Measurements as given in patent US7744867B2, “PTPase inhibitors and method of using same” (The Cleveland Clinic Foundation, priority 2001, dated 2010).

What was measured:
[1] = Tolerability in nude mice (viability, body weight, appearance); type: in vivo
Method: The effective dosage of sodium stibogluconate against WM9 and DU145 xenografts is well tolerated in nude mice. […] Thus dosage is much higher than the standard dose for Leishmaniasis (20 mg Sb/kg, daily). As an initial step to assess the toxicity of such a high dosage of sodium stibogluconate in nude mice, its effect on the viability and body weights of WM9 xenografts nude mice during the 25 day period of the study was determined.

[2] = tested on: Jak2 and Stat5 tyrosine phosphorylation; assay: IL-3-induced Jak2/Stat5 tyrosine phosphorylation in Baf3 cells; type: cell-based, murine
Method: For induction of cellular protein phosphorylation by sodium stibogluconate or pervanadate, Baf3 cells were incubated in 0.1% FCS RPMI 1640 medium at 37° C. for 16 hours. The cells were then washed twice in RPMI 1640 medium and incubated with sodium stibogluconate or pervanandate (0.1 mM) for various times prior to termination by lysing cells in cold lysis buffer (50 mM Tris, pH 7.4; 150 mM NaCl; 0.2 mM Na3VO4; 20 mm NaF; 1% NP40; 2 mM PMSF; 20 μg/ml of aprotinin and 1 mM of sodium molybdic acid). To determine the effect of sodium stibogluconate or potassium antimonyl tartrate on IL-3-induced Jak/Stat phosphorylation, Baf3 cells were deprived of the growth factor for 16 hours in 0.1% FCS RPMI 1640 medium and then incubated with or without sodium stibogluconate or potassium antimonyl tartrate for 10 minutes. IL-3 was next added to the cell suspension and incubated for various times. The cells were then harvested and lysed in cold lysis buffer at 4° C. for 45 minutes. Total cell lysates (TCL) were separated in SDS-PAGE gels, blotted onto nitrocellulose membrane (Schleicher & Schuell), probed with specific antibodies and detected using an enhanced chemiluminescence kit (ECL, Amersham).
A functional role of SHP-1 in dephosphorylating the Jak family kinases during cytokine signaling has been documented. To determine whether sodium stibogluconate inhibits SHP-1 in vivo, the effect of the drug on IL-3-induced Jak2 tyrosine phosphorylation in Baf3 cells was examined. Baf3 cells deprived of IL-3 were incubated with or without the drug for 10 minutes and then stimulated with IL-3 for various times. IL-3 induced tyrosine phosphorylation of Jak2 and Stat5 in Baf3 cells in the presence or absence of the drug. However, the phosphotyrosine levels of Jak2 and Stat5 in the presence of the drug were about twice of those in cells without drug treatment as determined by densitometry analysis.

[3] = target: T1, intracellular Flag-PRL-2 in WM9 cells (Homo sapiens, UniProt Q12974); assay: PTPase activity of anti-Flag immunocomplexes from WM9 transfectants; type: cell-based; conditions: treated 5 minutes
T1 construct: expressed in transfected cells; host or cells: WM9 human melanoma cells
Method: FIG. 6C. Sodium stibogluconate inactivates intracellular PRL-2 in WM9 human melanoma cells. A. Relative PTPase activities of anti-Flag immunocomplexes from WM9 cells transfected with the control vector (V) or Flag-PRL-2 expression construct and then treated with different amounts of sodium stibogluconate for 5 minutes B. Relative amounts of Flag-PRL-2 in the immunocomplexes as determined by SDS-PAGE/Western blotting. C. Relative PTPase activities of anti-MKP1 immunocomplexes from WM9 cells treated with different amounts of sodium stibogluconate for 5 minutes. Relative amounts of MKP1 in the immunocomplexes as determined by SDS-PAGE/Western blotting.
Flag-PRL-2 protein was detected in anti-Flag immunocomplexes from WM9 cells tranfected with an expression construct of Flag-PRL-2 but not in those from vector transfectants expected.

[4] = tested on: DU145 human prostate carcinoma xenografts; assay: Xenografts of human prostate carcinoma in nude mice, tumor volume; type: in vivo; conditions: day 25, IFNα 500,000 U s.c. daily, sodium stibogluconate 12 mg Sb s.c. daily, alone or combined
From the text: (§1) FIG. 11 illustrates that sodium stibogluconate appears to synergize with IFNα against WM9 human melanoma tumors in nude mice. IFNα or both on the growth of xenografts of human melanoma cell line WM9 and human prostate carcinoma cell line DU-145 in athymic nude mice. Nude mice of 4 weeks old were inoculated subcutaneously (s.c.) with WM9 human melanoma cells (3×10^6 cells/site) (A) or DU-145 human prostate cancer cells (2×10^6 cells/site) (B) on day 0. Starting on day 2, the mice were subjected to no treatment (Control) or treatment with IFNα (500,000 U, s.c., daily), sodium stibogluconate (12 mg, s.c., daily) or both (Combo). Tumor volume in the nude mice (4 mice/group, 2 tumors/mouse) was measured on the days as indicated. Tumor volume was calculated by the equation: (length×width^2)/2 to compare tumor growth rates. All mice survived by the end of the experiment. […]
(§2) For each of the cell lines, each of 16 mice received subcutaneous injection at the chest area of 3×10^6 cells/site (WM9) or 2×10^6 cells/site (DU145), two sites/mouse, on day 0. […] Tumor size was measured with a caliper to determine the two perpendicular diameters of each tumor. Tumor volume was calculated using the method of the NCI (length×width^2 in millimeters/2=volume in cubic millimeters).

[5] = tested on: WM9 human melanoma xenografts; assay: Xenografts of human melanoma in nude mice, tumor volume; type: in vivo; conditions: day 25, IFNα 500,000 U s.c. daily, sodium stibogluconate 12 mg Sb s.c. daily
From the text: as §1
as §2, with “millimeters). […]” for “millimeters).”

T1 sequence (Q12974 whole entry): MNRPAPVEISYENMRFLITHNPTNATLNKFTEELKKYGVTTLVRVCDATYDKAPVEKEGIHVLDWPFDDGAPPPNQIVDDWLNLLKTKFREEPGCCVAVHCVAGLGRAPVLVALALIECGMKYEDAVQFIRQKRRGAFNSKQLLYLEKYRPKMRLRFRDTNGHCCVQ

Compound	tolerability ([1]; 12 mg Sb daily (440 mg Sb/kg daily), s.c., 25 day study)	daily dose that mice could tolerate ([1]; pilot study, approximately 700-800 mg Sb/kg) [mg Sb]	phosphotyrosine levels of Jak2 and Stat5 relative to cells without drug treatment ([2]; IL-3 stimulated, drug 10 minutes before, densitometry)	Jak2/Stat5 tyrosine phosphorylation by the drug alone ([2]; without IL-3, 37° C. for 16 hours)	PTPase activity of Flag-PRL-2 immunocomplexes from treated WM9 transfectants [3]	average tumor volume, of the control [4]	average tumor volume, of the control group [5]
O.O.O.O.O.O.O.O.O.O=C([O-])[C@@H]1[O][Sb]2([O-])([O][Sb]34([OH])[O][C@H]([C@H](O)CO)[C@H]([O]3)[C@H](C(=O)[O-])[O]4)[O][C@H]([C@H](O)CO)[C@@H]1[O]2.[Na+].[Na+].[Na+] [sodium stibogluconate]	well tolerated with no serious side effect	20	about twice	failed to induce	only low levels of PTPase activity		
IFNα						approximately 70%	approximately 40%
